# Results: patent US20250064808A1, “METHODS FOR THE TREATMENT OF NLRP3 RELATED DISORDERS” (priority 2022, published 2025)
# Legend:
# [1] = tested on: BMDM; assay: extracellular (cell-free) mtDNA released by donor BMDM; format: cell-based, mouse; details: for amount of DNA released by LPS-primed donor BMDM challenged with the NLRP3 activator: 1500,000 donor cells per group, LPS-primed only approximately 0.1 μg
# Experimental: Extracellular DNA of donor macrophages (1500,000 cells per group) was isolated using QIAamp Circulating Nucleic Acid Kit according to manufacturer's instructions and then eluted in 300 μL distilled H2O and quantified using spectrophotometric analysis at 260/280 nm with Nanodrop. […] Applicant used 5% of the prepared DNA for qPCR measurement of extracellular mtDNA and the remaining 95% were added to the recipient BMDM for analyzing the paracrine immunostimulatory effects.
# [2] = tested on: VDAC; assay: VDAC cross-linking assay (VDAC oligomerization) in BMDM; format: cell-based, mouse; details: LPS-primed BMDM; for induction of VDAC oligomerization by mtROS generator: DMNQ 20 μM 16 hrs or MitoParaquat 5 μM 1 hr; for VDAC oligomerization induced by NLRP3 activator: compound pretreatment 16 h (VBIT-4 10 μM, CsA 1 μM, RuR 10 μM), ATP 4 mM or nigericin 10 μM 1 h
# Experimental: BMDM treated as indicated were washed and collected in PBS, incubated for 40 min at 30° C. with the cross-linking reagent EGS (200 μM). Samples were subjected to SDS-PAGE and IB analyzed with anti-VDAC antibody.
# [3] = tested on: mPTP; assay: calcein-quenching assay for mPTP opening in BMDM; format: cell-based; details: for induction of mPTP opening by mtROS generator: LPS-primed BMDM, DMNQ 20 μM 16 hrs or MitoParaquat 5 μM 1 hr; for mPTP opening (calcein fluorescence): BMDM pretreated 16 h (CsA 1 μM, VBIT-4 10 μM, RuR 10 μM), LPS-primed, ATP or nigericin 1 h
# Experimental: (§2) Bone marrow cells were cultured in high glucose DMEM supplemented with 10% FBS, 20% L929-cell conditioned medium, and 100 U/mL penicillin-streptomycin for 7-10 days at 37° C. with 5% CO2 (Hornung et al., 2008).
# (§3) Mitochondrial membrane potential was measured using TMRM according to manufacturer's instructions. Briefly, BMDM were primed or not with LPS for 4 h, and further stimulated with ATP or nigericin for 60 minutes. Cells were incubated with 200 nM TMRM for 30 minutes at 37° C. After washing twice, fluorescence intensity was determined per manufacturer's instructions using a FilterMax F5 multimode plate reader (Molecular Devices). Mitochondrial reactive oxygen species (mtROS) were measured using MitoSOX (Invitrogen) as described (Xian et al., 2021). BMDM treated as indicated were loaded with 4 μM MitoSOX for 20 minutes. After washing with PBS twice, cells were resuspended in PBS and counted. Equal numbers of cells from different treatment groups were then plated onto 96-well plates for fluorescence reading. To quantify [Ca^2+]m by 5 μM Rhod-2 or intracellular Ca^2+ intensity by 1 μM Fluo-4, BMDM treated as indicated were loaded with the respective dyes according to manufacturer's instructions for 30 minutes. After washing twice, fluorescence intensity was determined using a FilterMax F5 multimode plate reader (Molecular Devices). To analyze mPTP opening by calcein-quenching assay, BMDM treated as indicated were loaded with calcein at 2 μM and CoCl2 at 160 μM for 30 minutes at 37° C. according to manufacturer's instructions. After washing twice, fluorescence intensity was determined per with a FilterMax F5 multimode plate reader (Molecular Devices).
# [4] = tested on: BMDM; assay: cytosolic Ox-mtDNA (8-OH-dG ELISA of cytosolic mtDNA) in BMDM; format: cell-based, mouse; details: for induction of Ox-mtDNA cytosolic release by mtROS generator: DMNQ 20 μM 16 hrs or MitoParaquat 5 μM 1 hr
# Experimental: as §2
# (§4) BMDM were stimulated as indicated. […] Briefly, BMDM were washed with PBS and harvested, 10% of which were saved for DNA extraction of whole cells. The remaining BMDM resuspended with pre-chilled mitochondrial extraction buffer 1 (220 mM mannitol, 70 mM sucrose, 20 mM HEPES-KOH, pH 7.5, 1 mM EDTA and 2 mg/mL bovine serum albumin) supplemented with a protease inhibitor cocktail and a phosphatase inhibitor cocktail were passed through a 25-G syringe (BD Biosciences) 20 times on ice. The homogenized cells were centrifuged at 1000×g for 15 minutes at 4° C. The supernatant was further centrifuged at 10,000×g for 10 minutes at 4° C. to pellet the mitochondria from supernatant cytosolic fraction. qPCR was performed after DNA purification with AllPrep DNA/RNA Mini Kit according to manufacturer's instructions, from both whole cell extracts and cytosolic fractions using mtDNA primers (D-loop, Cox1, non-NUMT), or after DNA purification from whole cell extracts using nuclear DNA primers (Tert, 18S, B2m). The Ct values obtained for mtDNA abundance in whole cell extracts served as normalization controls for the mtDNA values obtained from the cytosolic fractions. For the measurement of Ox-mtDNA, purified mtDNA was extracted from the cytosolic or mitochondrial fractions as indicated. The 8-OH-dG content was then quantified using 8-hydroxy 2-deoxyguanosine ELISA Kit, per manufacturer's instructions.
# [5] = tested on: BMDM; assay: cytosolic mtDNA (qPCR after cellular fractionation) in BMDM; format: cell-based, mouse; details: for induction of mtDNA cytosolic release by mtROS generator: DMNQ 20 μM 16 hrs or MitoParaquat 5 μM 1 hr
# Experimental: as §2, §4
# [6] = tested on: NLRP3 inflammasome; assay: NLRP3 inflammasome activation (Casp1 p20 and mature IL-1β, IB and ELISA) in BMDM; format: cell-based, mouse; details: for activation of NLRP3 inflammasome by mtROS generator: BMDM −/+ LPS priming, DMNQ or MitoParaquat; for NLRP3 inflammasome activation (Casp1 activation and mature IL-1β secretion): LPS-primed BMDM, compound pretreatment 16 h, challenged with NLRP3 activators
# Text: (§1) Paired antibodies (capture and detection) and standard recombinant mouse IL-1β and TNF were used to determine mouse cytokine concentrations according to manufacturer's instructions.
# [7] = tested on: BMDM; assay: mtROS (MitoSOX) in BMDM; details: LPS-primed BMDM; for mtROS generated by the compound itself: DMNQ 20 μM 16 hrs or MitoParaquat 5 μM 1 hr, compared with ATP
# Experimental: as §2, §3
# [8] = tested on: BMDM; assay: 8-OH-dG content of mtDNA from mitochondria of BMDM; details: for mtDNA oxidation caused by mtROS generator: LPS-primed BMDM, DMNQ 20 μM 16 hrs or MitoParaquat 5 μM 1 hr
# Experimental: as §2, §4
# [9] = tested on: BMDM; assay: stimulation of naive recipient BMDM by cell-free mtDNA (cytokine and ISG mRNA, qPCR); format: cell-based, mouse
# Experimental: RNA was extracted using AllPrep DNA/RNA Mini kit, and cDNA was synthesized using SuperScript™ VILO™ cDNA Synthesis Kit. mRNA expression was determined by QPCR in a CFX96 thermal cycler (Biorad) as described (Xian et al., 2021). Data are presented in arbitrary units and calculated by the 2^(−ΔΔCT) method. Primer sequences were obtained from the NIH qPrimerDepot (http://mouseprimerdepot.nci.nih.gov) and provided by Integrated DNA technologies.
# Extracellular DNA of donor macrophages (1500,000 cells per group) was isolated using QIAamp Circulating Nucleic Acid Kit according to manufacturer's instructions and then eluted in 300 μL distilled H2O and quantified using spectrophotometric analysis at 260/280 nm with Nanodrop. DNA amounts purified among the different treatment groups vary. The DNA amount secreted from LPS-primed donor BMDM is low, approximately at 0.1 μg. The amount of DNA released by LPS-primed donor BMDM challenged with ATP is about 1.3 μg, while the amount of DNA released by LPS-primed donor BMDM challenged with nigericin is around 2 μg. The amount of DNA secreted by LPS-primed donor BMDM challenged with MSU or alum is about 0.7 μg. Applicant used 5% of the prepared DNA for qPCR measurement of extracellular mtDNA and the remaining 95% were added to the recipient BMDM for analyzing the paracrine immunostimulatory effects.
# [10] = tested on: NLRP3, pro-IL-1β, pro-casp1 and ASC; assay: immunoblot of NLRP3 inflammasome component expression in BMDM lysates; format: cell-based, mouse; details: BMDM lysates before and after LPS priming, compound pretreatment 16 h
# [11] = tested on: TNF; assay: TNF secretion by BMDM (ELISA); format: cell-based, mouse; details: compound pretreatment 16 h, LPS priming, NLRP3 activators
# Text: as §1
# [12] = tested on: BMDM; assay: mitochondrial Ca2+ ([Ca^2+]m, Rhod-2) in BMDM; format: cell-based, mouse; details: LPS-primed BMDM, XeC 5 μM or RuR 10 μM 16 h
# Experimental: After washing, BMDM were kept in the incubator for additional 30 minutes before confocal imaging (Nikon CSU-X1 Spinning Disk). Dynamic [Ca^2+]m images were captured at 10 seconds intervals for 4 minutes, with the addition of NLRP3 agonist at 40 seconds.
# [13] = tested on: BMDM; assay: total mtDNA (LPS-stimulated mtDNA synthesis, qPCR) in BMDM; format: cell-based, mouse; details: compound 10 μM 16 h, before or after LPS priming
# Text: Nuclear DNA encoding telomerase reverse transcriptase (Tert), 18S ribosomal RNA and β2 microglobulin (B2m) was used for normalization.
# [14] = tested on: BMDM; assay: mitochondrial membrane potential (TMRM) in BMDM; format: cell-based, mouse; details: BMDM incubated with CsA or VBIT-4
# Experimental: as §2
# (§5) Mitochondrial membrane potential was measured using TMRM according to manufacturer's instructions. Briefly, BMDM were primed or not with LPS for 4 h, and further stimulated with ATP or nigericin for 60 minutes. Cells were incubated with 200 nM TMRM for 30 minutes at 37° C. After washing twice, fluorescence intensity was determined per manufacturer's instructions using a FilterMax F5 multimode plate reader (Molecular Devices). Mitochondrial reactive oxygen species (mtROS) were measured using MitoSOX (Invitrogen) as described (Xian et al., 2021). […] After washing with PBS twice, cells were resuspended in PBS and counted. Equal numbers of cells from different treatment groups were then plated onto 96-well plates for fluorescence reading. To quantify [Ca^2+]m by 5 μM Rhod-2 or intracellular Ca^2+ intensity by 1 μM Fluo-4, BMDM treated as indicated were loaded with the respective dyes according to manufacturer's instructions for 30 minutes. After washing twice, fluorescence intensity was determined using a FilterMax F5 multimode plate reader (Molecular Devices). […] After washing twice, fluorescence intensity was determined per with a FilterMax F5 multimode plate reader (Molecular Devices).
# [15] = tested on: ASC; assay: ASC speck formation (immunofluorescence) in BMDM
# [16] = tested on: STING; assay: STING Ser365 phosphorylation (puncta by immunofluorescence, immunoblot) in BMDM; details: CsA 1 μM, VBIT-4 10 μM or FEN1-IN-4 10 μM 16 hrs
# Experimental: as §2
# Whole cell lysates were prepared in RIPA buffer (25 mM Tris-HCl pH 7.6, 150 mM NaCl, 1% NP-40, 1% sodium deoxycholate, 0.1% SDS) containing a protease inhibitor cocktail and a phosphatase inhibitor cocktail. Protein concentrations were determined using BCA Protein Assay Kit. Equal amounts of protein were separated by SDS-PAGE and transferred onto PVDF membranes, blocked in 5% BSA in 1×TBST for 1 h and incubated with primary antibodies overnight. Secondary antibodies were added for 1 h and detection was performed using Clarity Western ECL Substrate.
# (§6) BMDM were fixed in 4% paraformaldehyde (PFA), permeabilized in 0.2% Triton X-100,and blocked in 1×PBS supplemented with 3% BSA. […] Nuclei were counterstained with DAPI.
# [17] = tested on: BMDM; assay: Ox-mtDNA and mtDNA in the intermembrane space (proteinase K digested mitochondria); details: supernatant of proteinase K digested mitochondria from treated BMDM
# Experimental: To dissect the roles of VDAC oligomerization and mPTP in mtDNA escape, Applicant investigated whether Ox-mtDNA and mtDNA were trapped in the mitochondrial intermembrane space (IMS) of VBIT-4 treated BMDM. […] Using this method (FIG. 2F), Applicant measured relative Ox-mtDNA and mtDNA amounts in the IMS.
# BMDM were stimulated as indicated. Cellular fractionation was carried out as previously described (Xian and Liou, 2019; Xian et al., 2019). Briefly, BMDM were washed with PBS and harvested, 10% of which were saved for DNA extraction of whole cells. The remaining BMDM resuspended with pre-chilled mitochondrial extraction buffer 1 (220 mM mannitol, 70 mM sucrose, 20 mM HEPES-KOH, pH 7.5, 1 mM EDTA and 2 mg/mL bovine serum albumin) supplemented with a protease inhibitor cocktail and a phosphatase inhibitor cocktail were passed through a 25-G syringe (BD Biosciences) 20 times on ice. The homogenized cells were centrifuged at 1000×g for 15 minutes at 4° C. […] The 8-OH-dG content was then quantified using 8-hydroxy 2-deoxyguanosine ELISA Kit, per manufacturer's instructions.
# [18] = tested on: BMDM; assay: cytosolic Ca2+ (Fluo-4) in BMDM; format: cell-based, mouse; details: XeC 5 μM 16 h, ATP challenge
# Experimental: as §2, §5
# [19] = tested on: BMDM; assay: cytochrome C release (immunofluorescence) in BMDM; format: cell-based, mouse; details: BMDM treated with etoposide (positive control)
# Experimental: as §2, §6
# [20] = LPS-primed BMDM, compound 10 μM 16 h, ATP 4 mM 1 h
# [21] = LPS-primed shCtrl or shOgg1 BMDM, CsA 1 μM or VBIT-4 10 μM 16 h, ATP 4 mM 1 h
smiles,measurement,setting,value
"Nc1ncnc2c1ncn2[C@@H]1O[C@H](COP(=O)(O)OP(=O)(O)OP(=O)(O)O)[C@@H](O)[C@H]1O [ATP, adenosine triphosphate]",amount of DNA released by LPS-primed donor BMDM challenged with the NLRP3 activator,[1],about 1.3 μg
COC1=C(OC)C(=O)c2ccccc2C1=O [DMNQ],induction of VDAC oligomerization by mtROS generator,[2],neither compound induced
same,induction of mPTP opening by mtROS generator,[3],neither compound induced
same,induction of Ox-mtDNA cytosolic release by mtROS generator,[4]; LPS-primed BMDM,neither compound induced
same,induction of mtDNA cytosolic release by mtROS generator,[5]; LPS-primed BMDM,neither compound induced
same,activation of NLRP3 inflammasome by mtROS generator,[6],neither mtROS generator activated
same,mtROS generated by the compound itself,[7],as much mtROS as ATP
same,mtDNA oxidation caused by mtROS generator,[8],augmented
"O=c1[nH]c(=O)c2[nH]c([O-])nc2[nH]1.[Na+] [MSU, monosodium urate]",amount of DNA released by LPS-primed donor BMDM challenged with the NLRP3 activator,[1],about 0.7 μg
O=C1NC(=NS(=O)(=O)c2cccc3ccccc23)S/C1=C\c1ccc(Br)cc1 [Pitstop2],cytokine mRNA induction by extracellular mtDNA,"[9]; recipient BMDM with Pitstop 2 (2 uM), 24 hrs with extracellular DNA",diminish
"N.N.N.N.N.N.N.N.N.N.N.N.N.N.[Cl-].[Cl-].[Cl-].[Cl-].[Cl-].[Cl-].[O-2].[O-2].[Ru+3].[Ru+3].[Ru+4] [RuR, ruthenium red]",VDAC oligomerization induced by NLRP3 activator,[2],blocked
same,mPTP opening (calcein fluorescence),[3],blocked
same,cytosolic Ox-mtDNA (release),[4]; [20],reducing
same,cytosolic mtDNA release,[5]; [20],reducing
same,NLRP3 inflammasome activation (Casp1 activation and mature IL-1β secretion),[6],suppressed
same,"NLRP3, pro-IL-1β, pro-casp1 and ASC expression",[10],no effect
same,TNF secretion,[11],no effect
same,ATP- or nigericin-induced [Ca^2+]m pulse (Rhod-2 fluorescence),[12],disrupted
same,LPS-stimulated mtDNA synthesis (total mtDNA),[13],did not inhibit
O=C(CC(CO)N1CCN(c2ccc(OC(F)(F)F)cc2)CC1)Nc1ccc(Cl)cc1 (stereo not drawn) [VBIT-4],VDAC oligomerization induced by NLRP3 activator,[2],blocked
same,mPTP opening (calcein fluorescence),[3],little effect on calcein fluorescence
same,reduction of cytosolic pool of Ox-mtDNA,[4]; [21],81±4%
same,reduction of cytosolic pool of mtDNA,[5]; [21],50-60%
same,NLRP3 inflammasome activation (Casp1 activation and mature IL-1β secretion),[6],inhibited
same,"NLRP3, pro-IL-1β, pro-casp1 and ASC expression",[10],without affecting
same,TNF secretion,[11],without affecting
same,mitochondrial depolarization upon NLRP3 activator challenge,[14],abrogated
same,cell-free mtDNA release,"[1]; LPS-primed donor BMDM pretreated with compound, challenged with ATP or nigericin",inhibited
same,immunostimulatory activity of DNA secreted by treated donor BMDM,"[9]; recipient BMDM incubated 24 h with DNA from compound-pretreated donor BMDM, cytokine and ISG mRNAs",inhibited
same,mtROS production,"[7]; compound pretreatment 16 h, ATP or nigericin",modest decline
same,ASC speck formation,"[15]; BMDM, VBIT-4 10 μM 16 h, LPS-primed, ATP or nigericin 1 h",inhibited
same,reduction of mtDNA oxidation (8-OH-dG in mitochondrial mtDNA),"[8]; LPS-primed BMDM pretreated with CsA or VBIT-4 16 h, ATP stimulation",45±5.0%
same,formation of Ser^365 phosphorylated STING puncta,"[16]; LPS-primed BMDM, ATP or nigericin",diminished
same,ATP-induced STING Ser^365 phosphorylation (immunoblot) in Nlrp3−/− BMDM,"[16]; LPS-primed Nlrp3−/− BMDM, ATP",completely blocked
same,amount of Ox-mtDNA within the IMS,[17],elevated
same,amount of mtDNA (different regions of the genome) within the IMS,[17],elevated
"C1CCC[C@H]2CCCN3CC[C@@H](CCCCCC[C@@H]4CCCN5CC[C@@H](CC1)O[C@@H]45)O[C@@H]23 [XeC, xestospongin C]",ATP- or nigericin-induced [Ca^2+]m pulse (Rhod-2 fluorescence),[12],had no effect
same,cytosolic Ca^2+ (Fluo-4 fluorescence),[18],decreased
COc1cc([C@@H]2c3cc4c(cc3[C@@H](O[C@@H]3O[C@@H]5CO[C@@H](C)O[C@H]5[C@H](O)[C@H]3O)[C@H]3COC(=O)[C@H]23)OCO4)cc(OC)c1O [etoposide],cytochrome C release,[19],induced cytochrome C release
same,ASC speck formation triggered by apoptosis inducer,[15]; BMDM treated with etoposide,did not trigger
C[n+]1ccc(-c2cc[n+](CCCCCCCCCC[P+](c3ccccc3)(c3ccccc3)c3ccccc3)cc2)cc1.[I-].[I-].[I-] [mitoParaquat],induction of VDAC oligomerization by mtROS generator,[2],neither compound induced
same,induction of mPTP opening by mtROS generator,[3],neither compound induced
same,induction of Ox-mtDNA cytosolic release by mtROS generator,[4]; LPS-primed BMDM,neither compound induced
same,induction of mtDNA cytosolic release by mtROS generator,[5]; LPS-primed BMDM,neither compound induced
same,activation of NLRP3 inflammasome by mtROS generator,[6],neither mtROS generator activated
same,mtROS generated by the compound itself,[7],as much mtROS as ATP
same,mtDNA oxidation caused by mtROS generator,[8],augmented
CO[C@@H]1C[C@@H](C[C@H]2CC[C@H](C)[C@H]([C@@H](C)C(=O)O)O2)O[C@]2(O[C@](C)([C@H]3CC[C@@](C)([C@@H]4O[C@@H]([C@H]5O[C@@](O)(CO)[C@H](C)C[C@@H]5C)C[C@@H]4C)O3)C[C@H]2C)[C@@H]1C [nigericin],amount of DNA released by LPS-primed donor BMDM challenged with the NLRP3 activator,[1],around 2 μg
